Source: patent US20240209028A1, “CNP COMPOUNDS” (priority 2022, published 2024)
Where two headings read alike, the source gives them in different places. Starred links: 1 amine or outer side, 2 acyl side, 3 side chain; linkers in the order of their positions; H or OH if unused. Positions of bridges follow the written chain, without caps; N, C: chain ends. Residues, ends and D or L forms follow the SMILES beside them. No end group written: not given here. *: point of attachment. C18 diacid = O=C(O)CCCCCCCCCCCCCCCCC(=O)*; γGlu = O=C(O)[C@H](CCC(=O)[*:2])N[*:1]; C18d = not defined here; AEEA = NCCOCCOCC(=O)O

Assays:
[1] = Local tolerance of CNP compounds in rats (s.c. injection, histopathology); type: in vivo, Sprague Dawley rat; conditions: rat, s.c. 350 μl, about 1000 nmol/ml, 5 days post injection
Procedure: The purpose of this study was to evaluate the local tissue reaction to subcutaneous injection of CNP compounds in rats.
Procedure: The CNP compounds were formulated according to the principles described in General Methods of Preparation-Method G. Each Sprague Dawley rat (male, 10-11 weeks of age at arrival, Janvier, France) was dosed s.c. with 250 or 350 uL of the same compound (formulation concentration of 1000 nmol/mL) 120 h prior to tissue collection resulting in a total of two injections for each animal (Table 15). Injection site (flank or neck) was alternated across animals within each group and time point.
Animals had access to tap water and food (Altromin 1324) ad libitum. Group size was n=3 for vehicles and positive control, and n=4 for test compounds. Vehicles and compounds were formulated in either 5 mM sodium acetate, 250 mM glycerol, pH 4.0 or 8 mM sodium phosphate, 250 mM glycerol, pH 7.4 as shown in Table 16.
The animals were anesthetized with isoflurane. Via an electric shaving machine, a squared area of fur (2 cm×2 cm) was removed either from the rats' neck or flank area). For dosing, a new injection needle (25G canula, 1 ml syringe) was placed in the middle of the square border closest to the animal's head and the needle was inserted into the skin from the border towards the center of the square. […] On the day of tissue collection, the rats were deeply anaesthetized with isoflurane and euthanized by exsanguination. The injection sites were inspected and scored with regards to pathological lesions. The injection sites were evaluated, and any changes were noted (location, colour, shape and size), and sampled for histology preparation.
The injection sites were removed and fixed in 4% phosphate buffered neutral formaldehyde in sealed plastic containers.
Each injection site was subsequently cut into three sections 0.8 cm, 1.0 cm and 1.2 cm from the square border where the injection needle was placed, and, respectively, these sections represented the injection sites and the adjacent tissue. The tissue was processed, embedded in paraffin and cut in 2-4 μm thin sections, stained with the haematoxylin and eosin (H&E), and evaluated microscopically with a light microscope. Histopathological changes were graded on a 5-level scale (Minimal (Min), Mild (Mil), Moderate (Mod), Marked (Mar) and Severe (Sev)).

[2] = CNP local tolerance study in LYD pigs (s.c. injection, histopathology); type: in vivo, domestic LYD pig; conditions: LYD pig, s.c., approx. 4400 μM, 4 or 5 days after injection
Text: The purpose of this study was to evaluate the local tissue reaction response to subcutaneous injection of CNP compounds in pigs.
Procedure: In domestic pigs, the injection site was subjected to histopathologic examination after subcutaneous dosing. Injections were placed mid-back between the shoulder and hip on both sides of the dorsal midline, and one or two days before injection sites of 2×2 cm were shaved and marked by permanent ink under light anaesthesia. Each injection consisted of 100 or 200 μl formulation with a concentration of approx. 4400 μM. CNP compound formulations were prepared according to the principles in General Methods of Preparation—Method G, and were either A) 8 mM sodium phosphate, 250 mM glycerol, pH 6.5, B) 5 mM sodium acetate, 250 mM glycerol, pH 4.0 or C) 5 mM sodium acetate, 240 mM propylene glycol, pH 4.0 and physiological saline was included as negative control.
On Day 1 the pigs were lightly anaesthetised. An insulin pen (NovoPen 4) and insulin needle (NovoTwist 32G/5 mm) were used for accurate deposition of the CNP formulations in the subcutaneous fat tissue with the needle perpendicular to the skin. On Day 5 (4 days post injection) or 6 (5 days post injection), the pigs were euthanised, and the injection sites were removed and fixed in 4% phosphate buffered neutral formaldehyde in sealed plastic containers. The tissue blocks were prefixed for 2-4 hours in 10% buffered formalin, cut into 2 mm thick slabs with a multi knife, examined for macroscopic changes and finally fixed overnight in cassettes. Two slabs of tissue were selected for light microscopic evaluation where the tissue reaction was maximal or alternatively in the central part of the injection site. Three to four 2-4 μm sections were cut from three levels at 100 μm distance, stained with haematoxylin and eosin (H&E) and evaluated in a light microscope. Histopathological changes were graded on a 5-level scale ((Minimal (Min), Mild (Mil), Moderate (Mod), Marked (Mar) and Severe (Sev)). The studies are summarised in Table 18.
Results: The results are summarised in Table 19. * Necrosis was used as a marker for local subcutaneous reactions; **NAD: No Abnormalities Detected

[3] = PK after i.v. and s.c. administration to Göttingen minipig; conditions: female, in vivo, Göttingen Minipig
Procedure: The purpose of this study was to investigate pharmacokinetic and pharmacodynamic properties after intravenous (i.v.) and subcutaneous (s.c.) administration to Gottingen Minipig and domestic LYD pig, and to estimate bioavailability after s.c. dosing. Quantitative plasma analysis of CNP and cGMP levels were performed as described in
Animals and dosing: The pharmacokinetic and pharmacodynamic studies in Gottingen Minipig or domestic LYD pig were conducted at CRO Minerva Imaging or Novo Nordisk A/S, respectively. CNP compounds were dosed to normal female 1) Gottingen minipigs 6-12 months of age with an average weight of 22 kg or 2) domestic LYD pigs 4-5 months of age with and average weight of 80 kg. At least one week prior to dosing, permanent central venous catheters were implanted for blood sampling and intravenous (i.v.) dosing. For subcutaneous (s.c.) dosing, the pigs were ultrasound scanned and the optimal injection area laterally on the neck marked by a permanent tattoo. An insulin pen (NovoPen Echo or NovoPen 4) and insulin needle (NovoFine 32G/4 mm or NovoTwist 32G/5 mm) were used for accurate deposition of the CNP formulations in the subcutaneous fat tissue with the needle perpendicular to the skin.
CNP compounds were formulated according to the principles in General Methods of Preparation—Method G and were either A) 8 mM sodium phosphate, 250 mM glycerol, pH 6.5, B) 5 mM sodium acetate, 250 mM glycerol, pH 4.0, C) 5 mM sodium acetate, 240 mM propylene glycol, pH=4.0, D) 8 mM sodium phosphate, 250 mM glycerol, pH 7.5 or E) 20 mM sodium phosphate, 223 mM propylene glycol, pH 6.0.
Intravenously, the CNP compounds were dosed at 30-60 nmol/kg to Minipig and 15-43 nmol/kg to domestic pig using formulations A-E. Subcutaneously, the CNP compounds were dosed at 55-62 nmol/kg to Minipig and 20-30 nmol/kg to domestic pig using formulations A-D.
Sampling: Blood samples of approximately 1 mL were collected pre dose and up to 14 days post dose into EDTA-coated tubes (8 mM) for cGMP and CNP compound analysis by LC-MS. In few instances, cGMP was only analysed up to 48 hours post dose after intravenous dosing in domestic LYD pig. The blood samples were kept on wet ice for maximum 30 minutes until centrifugation for 10 minutes at 4° C. and minimum 1500G, and the plasma samples were stored at −20° C. until analysis.
Plasma concentration-time profiles were analyzed by non-compartmental PK analysis using Phoenix WinNonlin 8.1, Pharsight Inc., Mountain View, CA, USA. Calculation of the area under the plasma concentration-time curve (AUC) was based on the “linear up log down” method, and uniform weighting was used for estimation of the terminal rate constant (λz). S.c. bioavailability (F) was calculated as the dose-normalized AUC (AUC/dose) after s.c. administration divided by the AUC/dose after i.v. administration. […]

neprilysin (NEP) [4] = target: T1, neprilysin (NEP) (Homo sapiens, UniProt P08473); experiment: In vitro neprilysin stability; conditions: recombinant human neprilysin (rhNEP), pH 7.4
neprilysin (NEP) [5] = target: T1, neprilysin (NEP)
[6] = target: Recombinant human neprilysin (rhNEP; R&D Systems) (human) (UniProt P08473); experiment: cell-based or functional assay
[7] = in vivo; cited from earlier work
[8] = target: Recombinant human neprilysin (rhNEP; R&D Systems) (human, UniProt P08473 52-750); experiment: cell-based or functional assay
Recombinant human neprilysin (rhNEP; R&D Systems), sequence (P08473 52-750 limits assumed): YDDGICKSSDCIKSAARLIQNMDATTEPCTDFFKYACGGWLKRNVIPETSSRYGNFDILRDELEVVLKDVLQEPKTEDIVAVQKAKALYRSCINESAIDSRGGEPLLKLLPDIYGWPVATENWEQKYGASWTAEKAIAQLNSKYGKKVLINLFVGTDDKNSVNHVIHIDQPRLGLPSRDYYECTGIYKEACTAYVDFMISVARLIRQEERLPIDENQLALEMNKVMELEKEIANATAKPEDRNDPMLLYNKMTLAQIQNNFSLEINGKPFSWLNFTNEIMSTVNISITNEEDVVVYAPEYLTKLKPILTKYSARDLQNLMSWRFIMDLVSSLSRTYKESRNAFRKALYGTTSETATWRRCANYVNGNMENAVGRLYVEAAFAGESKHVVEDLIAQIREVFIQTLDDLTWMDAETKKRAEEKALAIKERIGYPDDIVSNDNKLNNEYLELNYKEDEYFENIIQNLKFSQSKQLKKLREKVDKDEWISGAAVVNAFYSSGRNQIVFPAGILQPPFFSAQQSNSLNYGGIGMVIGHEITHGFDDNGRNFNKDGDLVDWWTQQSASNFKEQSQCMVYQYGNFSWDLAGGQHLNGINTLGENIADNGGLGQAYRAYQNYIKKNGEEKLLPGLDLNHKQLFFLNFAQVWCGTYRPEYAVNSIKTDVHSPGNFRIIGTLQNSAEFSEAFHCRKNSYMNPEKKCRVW

T1 sequence (P08473 whole entry): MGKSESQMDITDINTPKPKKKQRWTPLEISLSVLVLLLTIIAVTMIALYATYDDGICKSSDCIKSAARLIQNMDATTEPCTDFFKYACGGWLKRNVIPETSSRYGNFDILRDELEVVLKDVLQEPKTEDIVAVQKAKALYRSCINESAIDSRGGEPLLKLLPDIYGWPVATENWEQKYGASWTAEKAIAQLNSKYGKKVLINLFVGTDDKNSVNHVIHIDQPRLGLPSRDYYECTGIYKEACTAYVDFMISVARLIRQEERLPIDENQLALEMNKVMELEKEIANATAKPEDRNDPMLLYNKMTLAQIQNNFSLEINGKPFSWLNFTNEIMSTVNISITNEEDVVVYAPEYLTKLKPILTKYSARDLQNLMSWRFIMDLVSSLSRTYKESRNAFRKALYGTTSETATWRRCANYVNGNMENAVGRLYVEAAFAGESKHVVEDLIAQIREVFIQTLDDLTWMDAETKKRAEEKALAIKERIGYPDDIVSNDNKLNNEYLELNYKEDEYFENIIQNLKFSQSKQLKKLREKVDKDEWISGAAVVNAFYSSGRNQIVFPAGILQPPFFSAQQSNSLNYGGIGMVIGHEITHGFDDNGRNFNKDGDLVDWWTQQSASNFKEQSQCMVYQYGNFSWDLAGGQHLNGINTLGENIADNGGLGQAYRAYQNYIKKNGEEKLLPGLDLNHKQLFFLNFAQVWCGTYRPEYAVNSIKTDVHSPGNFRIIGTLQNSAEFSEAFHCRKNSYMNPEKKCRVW
Recombinant human neprilysin (rhNEP; R&D Systems) (human), sequence (P08473 52-750 limits assumed): as the sequence (P08473 52-750 limits assumed) above

CC[C@H](C)[C@@H]1NC(=O)[C@H](CCCNC(=N)N)NC(=O)[C@H](CC(=O)O)NC(=O)[C@H](CC(C)C)NC(=O)[C@@H]2CCCN2C(=O)[C@H](CC(C)C)NC(=O)CNC(=O)[C@H](Cc2ccccc2)NC(=O)[C@@H](NC(=O)CNC(=O)[C@H](CCC(N)=O)NC(=O)[C@H](CO)NC(=O)[C@H](CO)NC(=O)CNC(=O)[C@H](CCCCN)NC(=O)[C@H](CCCCN)NC(=O)[C@H](CCC(N)=O)NC(=O)[C@H](C)NC(=O)CNC(=O)[C@@H]2CCCN2C(=O)[C@H](C)NC(=O)[C@H](CCC(N)=O)NC(=O)CNC(=O)COCCOCCNC(=O)COCCOCCNC(=O)CC[C@H](NC(=O)CCCCCCCCCCCCCCCCC(=O)O)C(=O)O)CSSC[C@@H](C(=O)O)NC(=O)CNC(=O)[C@H](CC(C)C)NC(=O)CNC(=O)[C@H](CO)NC(=O)[C@H](CC(C)C)NC(=O)[C@H](CO)NC(=O)CNC1=O [Compound 9384] ({C18 diacid-γGlu-AEEA-AEEA}-GQAPGAQKKGSSQGCFGLPLDRIGSLSGLGC-OH; disulfide 15-31)
Number of injections by severity of necrosis: NAD (No Abnormalities Detected) [1]: 4
Number of injections by severity of necrosis: Min. [2]: 1
Number of injections by severity of necrosis: NAD [2]: 3
clearance ([3]; iv, i.v., read-out: CL (ml/hr/kg), Intravenous PK (converted)): 1.53 mL/h/kg
half-life ([3]; iv, i.v., read-out: T½, iv (converted)): 61 h
bioavailability ([3]; sc, s.c. bioavailability, read-out: F (%), Subcutaneous PK): 78%
half-life ([3]; sc, s.c., read-out: T½, sc (converted)): 61 h
remaining at 1.5 h, 1000 nM (neprilysin (NEP) [4]): 87.8%

CC[C@H](C)[C@@H]1NC(=O)[C@H](CCCNC(=N)N)NC(=O)[C@H](CC(=O)O)NC(=O)[C@H](CC(C)C)NC(=O)[C@H](CCCCN)NC(=O)[C@H](CC(C)C)NC(=O)CNC(=O)[C@H](Cc2ccccc2)NC(=O)[C@@H](NC(=O)CNC(=O)[C@H](CCCCN)NC(=O)[C@H](CO)NC(=O)[C@H](CC(C)C)NC(=O)CN)CSSC[C@@H](C(=O)O)NC(=O)CNC(=O)[C@H](CC(C)C)NC(=O)CNC(=O)[C@H](CO)NC(=O)[C@H](CCSC)NC(=O)[C@H](CO)NC(=O)CNC1=O [Compound ID 0065, hCNP22]
stability in the presence of recombinant human neprilysin (neprilysin (NEP) [5]): rapidly degraded

Compound ID 9483, [N-terminal(C18d-4xgGlu), 5Q, 13Q, 19S, 25P, 27E, 32L]-hCNP37 (peptide)
Remaining of parent after 90 min (%) [6]: 106%

wt CNP: wild-type C-type natriuretic peptide; half-life of approximately two minutes
half-life [7]: approximately two

B1: Compound ID 9384, [N-terminal(C18d-gGlu-2xOEG-GQAP), des1-10, 13Q, 17S, 19Q, 25P, 32L]-hCNP37 (peptide)
peptide: {C18d-γGlu-AEEA-AEEA}-GQAPGAQKKGSSQGCFGLPLDRIGSLSGLGC
modifications: disulfide 15-31 (inferred); reading uncertain; also: printed as [N-terminal(C18d-gGlu-2xOEG-GQAP), des1-10, 13Q, 17S, 19Q, 25P, 32L]-hCNP37
Remaining of parent after 90 min (%) [8]: 87.8%

B2: Compound ID 9435, [N-terminal(C18d-2xgGlu-4xOEG), des1-8, 13Q, 17G, 19Q, 25P, 32L]-hCNP37 (peptide)
peptide: {C18d-γGlu-γGlu-AEEA-AEEA-AEEA-AEEA}-YKGAQKKGGSQGCFGLPLDRIGSLSGLGC
modifications: disulfide 13-29 (inferred); reading uncertain; also: printed as [N-terminal(C18d-2xgGlu-4xOEG), des1-8, 13Q, 17G, 19Q, 25P, 32L]-hCNP37
Remaining of parent after 90 min (%) [8]: 93.2%

B3: Compound ID 9480, [N-terminal(C18d-3xgGlu-4xOEG), des1-8, 13Q, 19Q, 25P, 32L]-hCNP37 (peptide)
peptide: {C18d-γGlu-γGlu-γGlu-AEEA-AEEA-AEEA-AEEA}-YKGAQKKGLSQGCFGLPLDRIGSLSGLGC
modifications: disulfide 13-29 (inferred); reading uncertain; also: printed as [N-terminal(C18d-3xgGlu-4xOEG), des1-8, 13Q, 19Q, 25P, 32L]-hCNP37
Remaining of parent after 90 min (%) [8]: 98.3%

B4: Compound ID 9482, [N-terminal(C18d-5xgGlu), 5Q, 13Q, 19S, 25P, 32L]-hCNP37 (peptide)
peptide: {C18d-γGlu-γGlu-γGlu-γGlu-γGlu}-QEHPQARKYKGAQKKGLSSGCFGLPLDRIGSLSGLGC
modifications: disulfide 21-37 (inferred); reading uncertain
Remaining of parent after 90 min (%) [8]: 96.3%

B5: Compound ID 9407, [N-terminal(C18d-5xgGlu-4xOEG), des1-5, 13Q, 19Q, 25P, 32L]-hCNP37 (peptide)
peptide: {C18d-γGlu-γGlu-γGlu-γGlu-γGlu-AEEA-AEEA-AEEA-AEEA}-ARKYKGAQKKGLSQGCFGLPLDRIGSLSGLGC
modifications: disulfide 16-32 (inferred); reading uncertain; also: printed as [N-terminal(C18d-5xgGlu-4xOEG), des1-5, 13Q, 19Q, 25P, 32L]-hCNP37
Remaining of parent after 90 min (%) [8]: 96.6%
